In article PMC6269904, “Two New Monoterpene Glycosides from Qing Shan Lu Shui Tea with Inhibitory Effects on Leukocyte-Type 12-Lipoxygenase Activity” (Molecules, 2013) one finds IC50 and no inhibition data, which are given here for 3 compounds.

Broadly, the IC50 is the point on the concentration scale where inhibition reaches its midpoint. A lower IC50 goes with greater potency.

The target of experiment [1] is T1, leukocyte-type 12-lipoxygenase (leukocyte-type 12-LOX), porcine (Sus scrofa, UniProt P16469).
T1 construct: gene ALOX15; partially purified from J774A.1 cells overexpressing the porcine enzyme
T1 sequence (P16469 1-663): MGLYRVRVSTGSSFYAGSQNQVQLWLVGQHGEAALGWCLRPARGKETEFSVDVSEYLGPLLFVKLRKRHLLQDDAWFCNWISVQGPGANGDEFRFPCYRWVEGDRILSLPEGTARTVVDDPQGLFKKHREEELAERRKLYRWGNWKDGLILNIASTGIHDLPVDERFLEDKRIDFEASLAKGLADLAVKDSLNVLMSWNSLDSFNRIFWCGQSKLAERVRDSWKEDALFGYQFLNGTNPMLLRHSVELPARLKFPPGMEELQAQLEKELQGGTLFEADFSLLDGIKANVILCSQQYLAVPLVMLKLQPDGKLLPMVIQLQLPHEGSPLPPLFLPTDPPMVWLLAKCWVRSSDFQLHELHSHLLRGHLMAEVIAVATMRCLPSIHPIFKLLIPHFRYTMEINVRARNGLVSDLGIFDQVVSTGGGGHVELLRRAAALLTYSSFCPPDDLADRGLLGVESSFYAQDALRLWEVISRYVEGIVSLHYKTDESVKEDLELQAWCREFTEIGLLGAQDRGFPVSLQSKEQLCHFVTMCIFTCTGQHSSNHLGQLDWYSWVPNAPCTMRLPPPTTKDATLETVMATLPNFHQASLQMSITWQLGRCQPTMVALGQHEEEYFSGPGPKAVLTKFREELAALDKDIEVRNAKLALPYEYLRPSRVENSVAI
Put plainly: RP-HPLC of HETE products after reduction. It is filed as biochemical.

Experiment [2] concerns the target T1, leukocyte-type 12-lipoxygenase (leukocyte-type 12-LOX), porcine. Description: RP-HPLC of HETE products ([…] nm) after reduction. It is filed as biochemical. Particulars: 25 μM arachidonic acid, 100 mM Tris-HCl pH 7.4, 30 °C, 5 min preincubation; partially purified enzyme.

For `C/C(=C\CO[C@@H]1O[C@H](CO)[C@@H](OC(=O)/C=C/c2ccc(O)cc2)[C@H](O[C@@H]2O[C@@H](C)[C@H](O)[C@@H](O)[C@H]2O)[C@H]1O)C/C=C/C(C)(C)OO` [compound 1, (2E,5E)-7-hydroperoxy-3,7-dimethyl-2,5-octadienyl-O-(α-L-rhamnopyranosyl)-(1″→3′)-(4′″-O-trans-p-coumaroyl)-β-D-glucopyranoside], the IC50 in experiment [1] amounted to 1700 nM.
In experiment [1], `C/C(=C\CO[C@@H]1O[C@H](CO)[C@@H](OC(=O)/C=C\c2ccc(O)cc2)[C@H](O[C@@H]2O[C@@H](C)[C@H](O)[C@@H](O)[C@H]2O)[C@H]1O)C/C=C/C(C)(C)OO` [compound 2, (2E,5E)-7-hydroperoxy-3,7-dimethyl-2,5-octadienyl-O-(α-L-rhamnopyranosyl)-(1′′→3′)-(4′′′-O-cis-p-coumaroyl)-β-D-glucopyranoside] came in with an IC50 of 700 nM. Against the preceding compound, the IC50 is about 2.4-fold lower.
With `O=C(O)/C=C/c1ccc(O)cc1` [p-coumaric acid], the no inhibition entry in experiment [2] is “showed no inhibition on leukocyte-type 12-LOX activity”.
